# Assay results: patent publication US12448388B2, “PRMT5 inhibitors and uses thereof” (Gilead Sciences, Inc., priority 2023, dated 2025)
# Tested on: HCT116 MTAP-deleted cell lines
# Experiment: Cell viability assay (CellTiter-Glo, 7 days), HCT116 MTAP-deleted
# Assay type: cell-based
# Conditions: Homo sapiens, HCT-116; cell viability assay, HCT116 MTAP-deleted; class symbols; read-out: CC50
# Method: Control compounds were analyzed in parallel each time for quality control. In Brief, on Day -1, a serial dilution of stock compounds in DMSO was performed using BioMek liquid handlers and dispensed using Echo acoustic dispenser into 384 well plates. Both tool compounds and sample compounds were spotted in the same plate for a dose response of PRMT5 inhibitors. Compound plates were stored as frozen until the cells were ready for seeding. […] After equilibrating the plate in room temperature, the cells were incubated for 7 days inside the sealed incubator set at 37° C. with 90% humidity and 5% CO2. On Day 7, the viability of cells was measured using a CTG assay kit (CellTitre-Glo;Promega cat no. G7573). Shortly, 40 μl per well of luminescent cell viability assay reagent were dispensed using EL460 liquid dispenser 5 μl cassette. CTG luminescence signal was measured using an EnVision plate reader (PerkinElmer) in accordance with manufacturer's instruction. […] Selectivity with * is artificially high due to limited solubility of the compound hampering accurate measurement of WT CC50.
row,Compound,CC50 [nM]
1,"Nc1nc2cc(F)c(C(=O)N3CC[C@H]4C[C@@H]3c3ccc(OC(F)(F)F)cc3O4)cc2n2cncc12 (racemic) [Ff-372, Rac-(4-amino-7-fluoroimidazo[1,5-a]quinoxalin-8-yl)((2S,6R)-9-(trifluoromethoxy)-3,4-dihydro-2H-2,6-methanobenzo[b][1,5]oxazocin-5(6H)-yl)methanone]",< 100
2,"Nc1nc2cnc(C(=O)N3CC[C@H]4C[C@@H]3c3ccc(OC(F)(F)F)cc3O4)cc2n2cncc12 (racemic) [Ff-373, Rac-(4-aminoimidazo[1,5-a]pyrido[3,4-e]pyrazin-8-yl)((2S,6R)-9-(trifluoromethoxy)-3,4-dihydro-2H-2,6-methanobenzo[b][1,5]oxazocin-5(6H)-yl)methanone]",< 100
3,"CC1(C)C[C@@H]2Oc3nc(C(F)(F)F)ccc3[C@@H]2N(C(=O)c2cc3c(cc2F)nc(N)c2cncn23)C1 (racemic) [Ff-384, Rac-(4-amino-7-fluoroimidazo[1,5-a]quinoxalin-8-yl)((4aS,9bS)-3,3-dimethyl-7-(trifluoromethyl)-3,4,4a,9b-tetrahydrofuro[2,3-b:4,5-b′]dipyridin-1(2H)-yl)methanone]",< 100
4,"Cc1ncn2c1c(N)nc1cc(F)c(C(=O)N3CC(C)(C)C[C@@H]4Oc5nc(C(F)(F)F)ccc5[C@@H]43)cc12 (racemic) [Ff-385, Rac-(4-amino-7-fluoro-3-methylimidazo[1,5-a]quinoxalin-8-yl)((4aS,9bS)-3,3-dimethyl-7-(trifluoromethyl)-3,4,4a,9b-tetrahydrofuro[2,3-b:4,5-b′]dipyridin-1(2H)-yl)methanone]",< 100
5,"Cc1ncn2c1c(N)nc1cnc(C(=O)N3C[C@H](C)C[C@@H]4CCc5cc(C(F)(F)F)ccc5[C@@H]43)cc12 (racemic) [Ff-462, Rac-(4-amino-3-methylimidazo[1,5-a]pyrido[3,4-e]pyrazin-8-yl)((3R,4aS,10bR)-3-methyl-8-(trifluoromethyl)-3,4,4a,5,6,10b-hexahydrobenzo[h]quinolin-1(2H)-yl)methanone]",100 to 1000
6,"CN(C(=O)c1cc2c(cc1F)nc(N)c1cncn12)[C@@H]1COc2cc([C@@H]3C[C@H]3c3ccccc3)ccc21 (racemic) [Ff-473, Trans-4-amino-7-fluoro-N-methyl-N-((3S)-6-(2-phenylcyclopropyl)-2,3-dihydrobenzofuran-3-yl)imidazo[1,5-a]quinoxaline-8-carboxamide]",< 100
7,"CN(C(=O)c1cc2c(cc1F)nc(N)c1cncn12)[C@@H]1COc2cc([C@@H]3C[C@H]3C3CC3)ccc21 (racemic) [Ff-474, Trans-N-((3S)-6-([1,1′-bi(cyclopropan)]-2-yl)-2,3-dihydrobenzofuran-3-yl)-4-amino-7-fluoro-N-methylimidazo[1,5-a]quinoxaline-8-carboxamide]",< 100

# Same assay, conditions: Homo sapiens, HCT-116; cell viability, HCT116 MTAP-deleted; class symbols; read-out: CC50
row,Compound,CC50 [nM]
1,"Nc1nc2cc(F)c(C(=O)N3CCC[C@@H]4OCc5cc(-c6cnn(C(F)F)c6)ccc5[C@@H]43)cc2n2cncc12 (racemic) [Ff-296, Rac-(4-amino-7-fluoroimidazo[1,5-a]quinoxalin-8-yl)((4aS,10bS)-8-(1-(difluoromethyl)-1H-pyrazol-4-yl)-2,3,4,4a,6,10b-hexahydro-1H-isochromeno[4,3-b]pyridin-1-yl)methanone]",< 100
2,"Nc1nc2cc(F)c(C(=O)N3CCC[C@@H]4OCc5cc(-c6cnn(C7CC7)c6)ccc5[C@@H]43)cc2n2cncc12 (racemic) [Ff-297, Rac-(4-amino-7-fluoroimidazo[1,5-a]quinoxalin-8-yl)((4aS,10bS)-8-(1-cyclopropyl-1H-pyrazol-4-yl)-2,3,4,4a,6,10b-hexahydro-1H-isochromeno[4,3-b]pyridin-1-yl)methanone]",< 100
3,"Nc1nc2cc(F)c(C(=O)N3CCC[C@@H]4OCc5cc(-c6ccn(C(F)F)n6)ccc5[C@@H]43)cc2n2cncc12 (racemic) [Ff-298, Rac-(4-amino-7-fluoroimidazo[1,5-a]quinoxalin-8-yl)((4aS,10bS)-8-(1-(difluoromethyl)-1H-pyrazol-3-yl)-2,3,4,4a,6,10b-hexahydro-1H-isochromeno[4,3-b]pyridin-1-yl)methanone]",< 100
4,"COc1ccc2c(c1F)CO[C@H]1CCCN(C(=O)c3cc4c(cc3F)nc(N)c3cncn34)[C@@H]21 (racemic) [Ff-299, Rac-(4-amino-7-fluoroimidazo[1,5-a]quinoxalin-8-yl)((4aS,10bS)-7-fluoro-8-methoxy-2,3,4,4a,6,10b-hexahydro-1H-isochromeno[4,3-b]pyridin-1-yl)methanone]",< 100
5,"COc1cc2c(cc1F)[C@H]1[C@H](CCCN1C(=O)c1cc3c(cc1F)nc(N)c1cncn13)OC2 (racemic) [Ff-300, Rac-(4-amino-7-fluoroimidazo[1,5-a]quinoxalin-8-yl)((4aS,10bS)-9-fluoro-8-methoxy-2,3,4,4a,6,10b-hexahydro-1H-isochromeno[4,3-b]pyridin-1-yl)methanone]",< 100
6,"Nc1nc2cc(F)c(C(=O)N3CCC[C@@H]4OCc5cc(C6CC6)ccc5[C@@H]43)cc2n2cncc12 (racemic) [Ff-301, Rac-(4-amino-7-fluoroimidazo[1,5-a]quinoxalin-8-yl)((4aS,10bS)-8-cyclopropyl-2,3,4,4a,6,10b-hexahydro-1H-isochromeno[4,3-b]pyridin-1-yl)methanone]",< 100
7,"Nc1nc2cc(F)c(C(=O)N3CCC[C@@H]4Cc5cc(C(F)(F)F)ccc5[C@@H]43)cc2n2cncc12 (racemic) [Ff-310, Rac-(4-amino-7-fluoroimidazo[1,5-a]quinoxalin-8-yl)((4aR,9bR)-7-(trifluoromethyl)-2,3,4,4a,5,9b-hexahydro-1H-indeno[1,2-b]pyridin-1-yl)methanone]",< 100
8,"Nc1nc2cc(F)c(C(=O)N3CCC[C@@H]4Cc5nc(C(F)(F)F)ccc5[C@@H]43)cc2n2cncc12 (racemic) [Ff-314, Rac-(4-amino-7-fluoroimidazo[1,5-a]quinoxalin-8-yl)((4bR,8aR)-2-(trifluoromethyl)-4b,6,7,8,8a,9-hexahydro-5H-cyclopenta[1,2-b:3,4-b′]dipyridin-5-yl)methanone]",< 100
9,"C[C@@H]1C[C@@H]2CCc3cc(C(F)(F)F)ccc3[C@@H]2N(C(=O)c2cc3c(cc2F)nc(N)c2cncn23)C1 (racemic) [Ff-322, Rac-(4-amino-7-fluoroimidazo[1,5-a]quinoxalin-8-yl)((3R,4aS,10bR)-3-methyl-8-(trifluoromethyl)-3,4,4a,5,6,10b-hexahydrobenzo[h]quinolin-1(2H)-yl)methanone]",< 100
10,"C[C@@H]1C[C@@H]2OCc3nc(C(F)(F)F)ccc3[C@@H]2N(C(=O)c2cc3c(cc2F)nc(N)c2cncn23)C1 (racemic) [Ff-323, Rac-(4-amino-7-fluoroimidazo[1,5-a]quinoxalin-8-yl)((3R,4aS,10bS)-3-methyl-8-(trifluoromethyl)-2,3,4,4a,6,10b-hexahydro-1H-pyrano[3,2-b:5,4-b′]dipyridin-1-yl)methanone]",< 100
11,"Nc1nc2cc(F)c(C(=O)N3CCC[C@@H]4Oc5cc(OC(F)(F)F)ccc5[C@@H]43)cc2n2cncc12 (racemic) [Ff-331, Rac-(4-amino-7-fluoroimidazo[1,5-a]quinoxalin-8-yl)((4aS,9bS)-7-(trifluoromethoxy)-3,4,4a,9b-tetrahydrobenzofuro[3,2-b]pyridin-1(2H)-yl)methanone]",< 100
12,"Nc1nc2cc(F)c(C(=O)N3CCC[C@@H]4Oc5cc(OC(F)(F)F)c(F)cc5[C@@H]43)cc2n2cncc12 (racemic) [Ff-333, Rac-(4-amino-7-fluoroimidazo[1,5-a]quinoxalin-8-yl)((4aS,9bS)-8-fluoro-7-(trifluoromethoxy)-3,4,4a,9b-tetrahydrobenzofuro[3,2-b]pyridin-1(2H)-yl)methanone]",< 100
13,"Cc1ncc2c(N)nc3cc(Cl)c(C(=O)N4CCC[C@@H]5Oc6nc(C(F)(F)F)ccc6[C@@H]54)cc3n12 (racemic) [Ff-334, Rac-4-amino-7-chloro-1-methylimidazo[1,5-a]quinoxalin-8-yl)((4aS,9bS)-7-(trifluoromethyl)-3,4,4a,9b-tetrahydrofuro[2,3-b:4,5-b′]dipyridin-1(2H)-yl)methanone]",< 100
14,"Nc1nc2cc(F)c(C(=O)N3CCC[C@@H]4Oc5c(ccc(Cl)c5F)[C@@H]43)cc2n2cncc12 (racemic) [Ff-335, Rac-((4-amino-7-fluoroimidazo[1,5-a]quinoxalin-8-yl)((4aS,9bS)-7-chloro-6-fluoro-3,4,4a,9b-tetrahydrobenzofuro[3,2-b]pyridin-1(2H)-yl)methanone]",< 100
15,"Nc1nc2cnc(C(=O)N3CCC[C@@H]4Oc5cc(OC(F)(F)F)c(F)cc5[C@@H]43)cc2n2cncc12 (racemic) [Ff-338, Rac-(4-aminoimidazo[1,5-a]pyrido[3,4-e]pyrazin-8-yl)((4aS,9bS)-8-fluoro-7-(trifluoromethoxy)-3,4,4a,9b-tetrahydrobenzofuro[3,2-b]pyridin-1(2H)-yl)methanone]",< 100
16,"Nc1nc2ccc(C(=O)N3CCC[C@@H]4Oc5cc(OC(F)(F)F)c(F)cc5[C@@H]43)cc2n2cncc12 (racemic) [Ff-339, Rac-(4-aminoimidazo[1,5-a]quinoxalin-8-yl)((4aS,9bS)-8-fluoro-7-(trifluoromethoxy)-3,4,4a,9b-tetrahydrobenzofuro[3,2-b]pyridin-1(2H)-yl)methanone]",< 100
17,"Nc1nc2cc(F)c(C(=O)N3CCC[C@@H]4Oc5cc(OC(F)(F)F)cc(F)c5[C@@H]43)cc2n2cncc12 (racemic) [Ff-350, Rac-(4-amino-7-fluoroimidazo[1,5-a]quinoxalin-8-yl)((4aS,9bS)-9-fluoro-7-(trifluoromethoxy)-3,4,4a,9b-tetrahydrobenzofuro[3,2-b]pyridin-1(2H)-yl)methanone]",< 100
